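Grown in 96-well plates, cells were treated for 48 hours with each compound at five concentrations. Insufficient inhibition: endpoint recorded as highest concentration tested. TGI: total growth inhibition.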
Assays:
Test in all cases: NCI-60 cell line screen, 48 h
HOP-62 NSCLC = system: HOP-62 NSCLC
HT29 colon = system: HT29 colon
MDA-MB-435 = system: MDA-MB-435
SF-539 CNS = system: SF-539 CNS
SK-OV-3 ovarian = system: SK-OV-3 ovarian
UO-31 renal = system: UO-31 renal

SMILES | TGI (HOP-62 NSCLC) [µM] | TGI (HT29 colon) [µM] | TGI (MDA-MB-435) [µM] | TGI (SF-539 CNS) [µM] | TGI (SK-OV-3 ovarian) [µM] | TGI (UO-31 renal) [µM]
O=C(c1ccccc1)N(C(=O)c1ccccc1)c1nc(SCc2ccccc2)ns1 | 87.1 | 84.8 | 91.8 | 44.1 | > 100 | 23.7
CCOC(=O)CNC(=O)C(CSC(=O)N(O)c1ccc(Cl)cc1)NC(=O)CCC(N)C(=O)OCC (centres undefined) | > 50 | > 50 | > 50 | > 50 | > 50 | > 50
COC(=O)C(CCSC)NC(=O)CNC(=O)CSc1nnc(COc2ccc(Cl)cc2)n1-c1ccccc1 (centres undefined) | 34.9 | 31.5 | 37.9 | 35 | 34 | 22.1
O=C1Cc2c([nH]c3ccc(Br)cc23)-c2cc(O)c(O)cc2N1 | > 100 | – | > 100 | – | > 100 | > 100
O=C(/C=C/c1ccc(Oc2cc(C(=O)/C=C/c3ccc(O)cc3)c(O)cc2O)cc1)c1ccc(O)cc1O | 15.5 | 3.57 | 17.6 | 6.1 | 8.88 | > 100
COc1c(=O)cc2cc[nH]c3ccn(C)c1c23 | > 100 | – | > 100 | – | > 100 | > 100
CSC(=S)Nc1cccc(C)n1 | > 100 | > 100 | > 100 | > 100 | > 100 | > 100
NS(=O)(=O)c1nnc(NS(=O)(=O)C(F)(F)F)s1 | > 100 | > 100 | > 100 | > 100 | > 100 | > 100
CC(C)=CCN1CC(C)C(=O)Nc2ccccc21 (centres undefined) | > 100 | > 100 | > 100 | > 100 | > 100 | > 100
CCC1OC2C(CC=C(C)C)=C3OC(C)(O)C(C)(CC)C(OC(C)=O)C3=C3OC(=O)C=C1C32 (centres undefined) | 60.1 | 53.1 | 50.3 | 40.9 | > 100 | 62.2
c1cc2nnc1SCCCSc1ccc(nn1)SCCCS2 | > 93.1 | > 100 | > 100 | > 93.9 | 92.3 | > 100
O=C1C(Cl)C2(CC(/C=C/c3ccccc3)=NN2c2cccc(S(=O)(=O)O)c2)N1c1nc2ccccc2s1 (centres undefined) | – | 37.2 | 36.1 | 35.3 | – | 16.1
CC1(C)CC[C@]2(C)CC[C@]3(C)C(=CC[C@@H]4[C@@]5(C)CCC(=O)C(C)(C)[C@@H]5[C@H](O)C[C@]43C)[C@@H]2C1 | 31.5 | 31.8 | 39.7 | 32.1 | 31.7 | –
O=c1c2cc(S(=O)(=O)O)ccc2nc(COc2ccc(Oc3ccc(Cl)cc3Cl)cc2)n1-c1ccc(Oc2ccc(Cl)cc2)cc1Cl | 46 | 36 | 39.6 | 32.3 | 49.2 | 27
Cc1ccc2nc(N/N=C/c3sccc3C)cc(C)c2c1 | > 100 | > 100 | > 100 | – | > 100 | > 100
CC(C)(C)C1=CC(C)(n2[nH]c(=O)n(-c3ccccc3)c2=O)C=C(C(C)(C)C)C1=O | – | > 100 | > 100 | > 100 | > 100 | > 100
NC1CC(=O)c2c1sc(Cl)c2Cl (centres undefined) | > 100 | > 100 | > 100 | > 100 | > 100 | > 100
C=C1CC(c2ccc(OCCCN3C(=O)c4ccccc4C3=O)cc2)OC1=O (centres undefined) | 33.2 | 9.24 | 9.2 | 0.827 | 27.5 | 7.81
COC(=O)c1ccc(S)c(S(=O)(=O)Nc2n[nH]c(N)n2)c1 | – | > 100 | > 100 | > 100 | – | > 100
COc1ccc2c(c1)c1c(n2CCN(C)C)-c2ccccc2CC1 | 30.5 | 20.3 | 36.5 | 27 | 34.4 | 26.4
Cc1ccc(-c2nc(N/N=C/C=C/c3ccccc3)c3ccccc3n2)cc1 | > 100 | > 100 | > 100 | > 100 | > 100 | > 100
COc1cc(O)c2c(=O)c(O)c(-c3ccc(O)c(OC)c3)oc2c1 | – | > 100 | – | > 100 | – | –
CC(=O)Oc1ccc(/C=C/C(=O)OCCCOC(=O)/C=C/c2ccc(OC(C)=O)c(OC(C)=O)c2)cc1OC(C)=O | > 100 | > 100 | > 100 | > 100 | > 100 | > 100

SMILES | TGI (HOP-62 NSCLC) [µM] | TGI (HT29 colon) [µM] | TGI (MDA-MB-435) [µM] | TGI (SF-539 CNS) [µM] | TGI (SK-OV-3 ovarian) [µM] | TGI (UO-31 renal) [µM]
COc1ccc(N2C(=O)/C(=C\c3cc(OC)c(OC)c(OC)c3)SC2c2ccccc2)cc1 (centres undefined) | > 100 | > 100 | > 100 | > 100 | > 100 | > 100
Cc1cn(CCCCC2=NCCCN2)c(=O)[nH]c1=O | > 60.7 | > 23.1 | > 33.8 | > 22 | > 40.7 | > 31
O=[N+]([O-])/C(C(Cl)=C(Cl)Cl)=C(/Cl)SCc1ccccc1 | 30 | 27.9 | 5.12 | 32.3 | 35.6 | 4.83
COC(=O)/C=C(\CC(=O)OC)n1nnnc1[C@@H]1C[C@H](COC(c2ccccc2)(c2ccccc2)c2ccccc2)[C@H]2OC(C)(C)O[C@H]21 | > 100 | > 100 | > 100 | > 100 | > 100 | > 100
COc1ccc(/C(Br)=C2\OC(=O)c3ccccc32)cc1 | > 10 | > 10 | > 10 | > 10 | > 10 | > 10
Cc1cc(N(CCC#N)CCC#N)ccc1/C(N=Nc1cccc(Cl)c1)=N/NC(=O)c1cc(Cl)ccc1O | 62 | 44.2 | > 100 | > 100 | 90.6 | 55.6
CCOC(=O)C(C(=O)OCC)=C1NC2(c3ccccc3Nc3ccccc32)C(C#N)S1 (centres undefined) | 27 | 17.8 | 20.6 | 23 | 53.8 | 25.3
CCOP1(=O)CC(C)=C(Cl)C(O)C1 (centres undefined) | > 100 | > 100 | > 100 | > 100 | > 100 | > 100
CC1(C)CNCC(C)(OCc2ccccc2)C(=O)NC(C)(C)CNCC(C)(OCc2ccccc2)C(=O)N1 (centres undefined) | > 10 | – | > 10 | > 10 | > 10 | > 10
COc1ccc(OC)c(CNc2ccc(C(=O)O)cc2)c1 | – | > 100 | > 100 | > 100 | > 100 | > 100
C[N+]12C=CC=C1C(N1CCCC1)c1scc(-c3ccccc3)c12 (centres undefined) | > 100 | 24.4 | > 100 | – | > 100 | > 100
NNC(=O)c1c(-c2cccnc2)cnc2ccccc12 | > 100 | > 100 | – | > 100 | > 100 | > 100
Cc1nc2ccc(C(F)(F)F)cc2nc1NCc1ccc(Cl)c(Cl)c1 | 27.5 | 28.2 | 31.8 | 33.7 | – | 29.9
O=C1CSC2(CC(/C=C/c3cccc([N+](=O)[O-])c3)=NN2c2cccc(S(=O)(=O)O)c2)N1c1nc2ccccc2s1 (centres undefined) | – | > 100 | 34.9 | > 100 | – | 34.3
O=C(c1cccs1)N(C(=S)OCCOc1ccccc1)c1ccccc1 | 72.5 | 96.5 | 33.7 | 58 | 73.5 | –
CC1(C)OC(=S)N(c2ccccc2)C12C=Cc1ccccc1O2 (centres undefined) | > 100 | > 100 | > 100 | – | 73 | > 100
Cc1ccc(NC(=O)c2cc(S(=O)(=O)Nc3n[nH]c(=O)[nH]3)c(SSc3cc(Cl)c(C(=O)Nc4ccc(C)cc4)cc3S(=O)(=O)Nc3n[nH]c(=O)[nH]3)cc2Cl)cc1 | > 100 | > 100 | > 100 | – | > 100 | > 100
CCc1c(C)c(C#N)c(=S)n(C2OC(COC(C)=O)C(OC(C)=O)C(OC(C)=O)C2OC(C)=O)c1-c1ccccc1 (centres undefined) | > 31.6 | > 31.6 | > 31.6 | > 31.6 | – | > 31.6
CC1(C)OCC([C@H]2O[C@@H](CC(=S)NCCCCCCCCCCCCNC(=S)C[C@H]3O[C@@H](C4COC(C)(C)O4)[C@H]4OC(C)(C)O[C@H]43)[C@H]3OC(C)(C)O[C@H]32)O1 (some centres undefined) | > 100 | > 100 | > 100 | > 100 | – | 95
NC(=O)C(=CNC(=S)Nc1ccccc1)C(N)=O | > 100 | > 100 | > 100 | > 100 | > 100 | –
CC(=O)C1=CN=C2C(=O)N(c3ccccc3)N(C)C12C (centres undefined) | – | – | > 100 | > 100 | > 100 | > 100
CCOC(=O)NNC(=O)NCc1cccc(CNC(=O)NNC(=O)OCC)c1 | – | > 100 | > 100 | > 100 | > 100 | > 100

Source: PubChem BioAssay (NCI)
